PubChem BioAssay (NCI)
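A five-concentration, 48-hour dose response in 96-well plates underlies each endpoint, interpolated linearly between surrounding concentrations. GI50 marks 50% less growth. TGI denotes the concentration required for complete inhibition of growth.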

Legend:
Test in all cases: growth of human tumour cells (NCI), 48 h
UACC-62 melanoma = tested on: UACC-62 melanoma
KM12 colon = tested on: KM12 colon
OVCAR-3 ovarian = tested on: OVCAR-3 ovarian
T-47D breast = tested on: T-47D breast
NCI/ADR-RES ovarian = tested on: NCI/ADR-RES ovarian
A498 renal = tested on: A498 renal
OVCAR-4 ovarian = tested on: OVCAR-4 ovarian
SR leukemia = tested on: SR leukemia
HT29 colon = tested on: HT29 colon
NCI-H460 lung = tested on: NCI-H460 lung
MDA-MB-231 breast = tested on: MDA-MB-231 breast
EKVX NSCLC = tested on: EKVX NSCLC
SW-620 colon = tested on: SW-620 colon
SF-268 CNS = tested on: SF-268 CNS
MALME-3M melanoma = tested on: MALME-3M melanoma
HOP-62 NSCLC = tested on: HOP-62 NSCLC
ACHN renal = tested on: ACHN renal
SN12C renal = tested on: SN12C renal
HCC-2998 colon = tested on: HCC-2998 colon
PC-3 prostate = tested on: PC-3 prostate
CCRF-CEM leukemia = tested on: CCRF-CEM leukemia
MOLT-4 leukemia = tested on: MOLT-4 leukemia
SK-MEL-28 melanoma = tested on: SK-MEL-28 melanoma
DU-145 prostate = tested on: DU-145 prostate
NCI-H226 lung = tested on: NCI-H226 lung
RXF 393 renal = tested on: RXF 393 renal
UO-31 renal = tested on: UO-31 renal
SF-295 CNS = tested on: SF-295 CNS
IGROV1 ovarian = tested on: IGROV1 ovarian
U251 CNS = tested on: U251 CNS
SK-MEL-5 melanoma = tested on: SK-MEL-5 melanoma
OVCAR-5 ovarian = tested on: OVCAR-5 ovarian
SK-MEL-2 melanoma = tested on: SK-MEL-2 melanoma
RPMI-8226 leukemia = tested on: RPMI-8226 leukemia
OVCAR-8 ovarian = tested on: OVCAR-8 ovarian
SK-OV-3 ovarian = tested on: SK-OV-3 ovarian
CAKI-1 renal = tested on: CAKI-1 renal
HCT-116 colon = tested on: HCT-116 colon
HCT-15 colon = tested on: HCT-15 colon
TK-10 renal = tested on: TK-10 renal
BT-549 breast = tested on: BT-549 breast
SNB-19 CNS = tested on: SNB-19 CNS
A549 NSCLC = tested on: A549 NSCLC
HOP-92 NSCLC = tested on: HOP-92 NSCLC
UACC-257 melanoma = tested on: UACC-257 melanoma
NCI-H23 lung = tested on: NCI-H23 lung
HL-60(TB) leukemia = tested on: HL-60(TB) leukemia
786-0 renal = tested on: 786-0 renal
SF-539 CNS = tested on: SF-539 CNS
NCI-H522 lung = tested on: NCI-H522 lung
LOX IMVI melanoma = tested on: LOX IMVI melanoma
SNB-75 CNS = tested on: SNB-75 CNS
COLO 205 colon = tested on: COLO 205 colon
MCF7 breast = tested on: MCF7 breast
M14 melanoma = tested on: M14 melanoma
HS 578T breast = tested on: HS 578T breast
K-562 leukemia = tested on: K-562 leukemia

In the case of `Cc1c[nH]c(=O)n(Cc2nnc(CCC(=O)c3nc4ccccc4[nH]3)o2)c1=O`, the GI50 (UACC-62 melanoma) is reported as 721 nM, the TGI (UACC-62 melanoma) is reported as > 88100 nM and the GI50 (KM12 colon) is reported as 414 nM. For the same compound, the TGI (KM12 colon) was > 33100 nM, the GI50 (OVCAR-3 ovarian) was 315 nM and the TGI (OVCAR-3 ovarian) was 1260 nM. For the same compound, the GI50 (T-47D breast) was 1030 nM, the TGI (T-47D breast) was > 100000 nM and the GI50 (NCI/ADR-RES ovarian) was 14700 nM. It also gave a TGI (NCI/ADR-RES ovarian) of 63800 nM, a GI50 (A498 renal) of 296 nM and a TGI (A498 renal) of 3890 nM. For the same compound, the GI50 (OVCAR-4 ovarian) was 629 nM, the TGI (OVCAR-4 ovarian) was > 100000 nM and the GI50 (SR leukemia) was 447 nM. For the same compound, the TGI (SR leukemia) was > 100000 nM, the GI50 (HT29 colon) was 194 nM and the TGI (HT29 colon) was > 43100 nM. The GI50 (NCI-H460 lung) was 387 nM, the TGI (NCI-H460 lung) was > 43100 nM and the GI50 (MDA-MB-231 breast) was 671 nM. For the same compound, the TGI (MDA-MB-231 breast) was > 53000 nM, the GI50 (EKVX NSCLC) was 1510 nM and the TGI (EKVX NSCLC) was > 100000 nM. The GI50 (SW-620 colon) was 483 nM, the TGI (SW-620 colon) was > 100000 nM and the GI50 (SF-268 CNS) was 1500 nM. The TGI (SF-268 CNS) was > 100000 nM, the GI50 (MALME-3M melanoma) was 1140 nM and the TGI (MALME-3M melanoma) was > 100000 nM. The GI50 (HOP-62 NSCLC) was 967 nM, the TGI (HOP-62 NSCLC) was > 100000 nM and the GI50 (ACHN renal) was 7560 nM. The TGI (ACHN renal) was > 100000 nM, the GI50 (SN12C renal) was 1120 nM and the TGI (SN12C renal) was > 100000 nM. It also gave a GI50 (HCC-2998 colon) of 421 nM, a TGI (HCC-2998 colon) of 7140 nM and a GI50 (PC-3 prostate) of 477 nM. The TGI (PC-3 prostate) was > 100000 nM, the GI50 (CCRF-CEM leukemia) was 459 nM and the TGI (CCRF-CEM leukemia) was > 100000 nM. For the same compound, the GI50 (MOLT-4 leukemia) was 1690 nM, the TGI (MOLT-4 leukemia) was > 100000 nM and the GI50 (SK-MEL-28 melanoma) was 533 nM. For the same compound, the TGI (SK-MEL-28 melanoma) was > 100000 nM, the GI50 (DU-145 prostate) was 337 nM and the TGI (DU-145 prostate) was 1210 nM. The GI50 (NCI-H226 lung) was 3480 nM, the TGI (NCI-H226 lung) was > 100000 nM and the GI50 (RXF 393 renal) was 697 nM. The TGI (RXF 393 renal) was 3830 nM, the GI50 (UO-31 renal) was 2400 nM and the TGI (UO-31 renal) was > 100000 nM. The GI50 (SF-295 CNS) was 728 nM, the TGI (SF-295 CNS) was 9480 nM and the GI50 (IGROV1 ovarian) was 575 nM. For the same compound, the TGI (IGROV1 ovarian) was > 90400 nM, the GI50 (U251 CNS) was 372 nM and the TGI (U251 CNS) was > 42500 nM. For the same compound, the GI50 (SK-MEL-5 melanoma) was 330 nM, the TGI (SK-MEL-5 melanoma) was 67700 nM and the GI50 (OVCAR-5 ovarian) was 879 nM. The TGI (OVCAR-5 ovarian) was > 100000 nM, the GI50 (SK-MEL-2 melanoma) was 887 nM and the TGI (SK-MEL-2 melanoma) was > 23900 nM. For the same compound, the GI50 (RPMI-8226 leukemia) was 340 nM, the TGI (RPMI-8226 leukemia) was > 100000 nM and the GI50 (OVCAR-8 ovarian) was 661 nM. For the same compound, the TGI (OVCAR-8 ovarian) was > 100000 nM, the GI50 (SK-OV-3 ovarian) was 460 nM and the TGI (SK-OV-3 ovarian) was 13200 nM. The GI50 (CAKI-1 renal) was 7220 nM, the TGI (CAKI-1 renal) was > 100000 nM and the GI50 (HCT-116 colon) was 251 nM. For the same compound, the TGI (HCT-116 colon) was > 89800 nM, the GI50 (HCT-15 colon) was 8930 nM and the TGI (HCT-15 colon) was > 100000 nM. For the same compound, the GI50 (TK-10 renal) was 3680 nM, the TGI (TK-10 renal) was > 80600 nM and the GI50 (BT-549 breast) was 717 nM. The TGI (BT-549 breast) was 48700 nM, the GI50 (SNB-19 CNS) was 1270 nM and the TGI (SNB-19 CNS) was > 100000 nM. For the same compound, the GI50 (A549 NSCLC) was 475 nM, the TGI (A549 NSCLC) was > 100000 nM and the GI50 (HOP-92 NSCLC) was 1440 nM. For the same compound, the TGI (HOP-92 NSCLC) was > 100000 nM, the GI50 (UACC-257 melanoma) was 787 nM and the TGI (UACC-257 melanoma) was > 100000 nM. The GI50 (NCI-H23 lung) was 432 nM, the GI50 (HL-60(TB) leukemia) was 966 nM and the TGI (HL-60(TB) leukemia) was > 100000 nM. For the same compound, the GI50 (786-0 renal) was 1980 nM, the TGI (786-0 renal) was 38300 nM and the GI50 (SF-539 CNS) was 799 nM. For the same compound, the TGI (SF-539 CNS) was 29900 nM, the GI50 (NCI-H522 lung) was 281 nM and the TGI (NCI-H522 lung) was 1400 nM. The GI50 (LOX IMVI melanoma) was 439 nM, the TGI (LOX IMVI melanoma) was > 100000 nM and the GI50 (SNB-75 CNS) was 55.8 nM. For the same compound, the TGI (SNB-75 CNS) was 806 nM, the GI50 (COLO 205 colon) was 299 nM and the TGI (COLO 205 colon) was 1040 nM. The GI50 (MCF7 breast) was 205 nM, the TGI (MCF7 breast) was > 100000 nM and the GI50 (M14 melanoma) was 492 nM. The TGI (M14 melanoma) was 3120 nM, the GI50 (HS 578T breast) was 285 nM and the TGI (HS 578T breast) was 2300 nM. The GI50 (K-562 leukemia) was 1030 nM and the TGI (K-562 leukemia) was > 100000 nM.
